The values below are quoted from earlier work in patent publication US20260137743A1, “METHODS OF RELIEVING PAIN” (Infinitum Health, LLC, priority 2023, published 2026).

The conditions of the data set: isolated from Incarvillea sinensis.

As to `COc1cc([C@H]2[C@H](C(=O)O[C@@H]3C[C@@H]4[C@@H](CN(C)C[C@@H]4C)[C@@H]3C)[C@H](c3ccc(O)c(OC)c3)[C@H]2C(=O)O[C@@H]2C[C@@H]3[C@@H](CN(C)C[C@@H]3C)[C@@H]2C)ccc1O` [Incarvillateine, incarvillateine], the “analgesic (pain relief) activity” value is listed as “significant analgesic (pain relief) activity”.
